Structures are written as SMILES.

Among the data in patent US11254705B2, “Cyclic peptide analogs and conjugates thereof” (Sirenas LLC, priority 2016, dated 2022) are IC50 values, retold here.

For this assay, the system named is HCC1954 cells. The assay is described as follows: Inhibition of HCC1954 cell growth (method analogous to BT-474). The format is cell-based. As to conditions: Homo sapiens. The method, then:
BT-474 human mammary gland ductal carcinoma cells were seeded in a clear polystyrene 96-well microculture plate (Corning® Costar® 96-well flat bottom plate, Cat. #3997) in a total volume of 90 μL/well. After 24 hours of incubation in a humidified incubator at 37° C. with 5% CO2 and 95% air, 10 μL of 10×, serially diluted test agents in growth medium were added to each well (10 pt dose response curve, highest concentration 10 μM of test agent). After 72 hours of culture in a humidified incubator at 37° C., in an atmosphere of 5% CO2 and 95% air, the plated cells and Cell Titer-Glo® (Protnega G7571) reagents were brought to room temperature to equilibrate for 30 minutes. 100 μL of Cell Titer-Glo® reagent was added to each well. The plate was shaken for two minutes and then left to equilibrate for ten minutes. The media/Cell Titer-Glo® reagent was transferred to a white polystyrene 96-well microculture plate (Corning® Costar® 96-well flat bottom plate, Cat. #3917) before reading luminescence on a Tecan GENios microplate reader.
Percent inhibition of cell growth was calculated relative to untreated control wells. The IC50 value for the test agents was determined using Prism 6.05 by curve-fitting of the data using the following four parameter-logistic equation:
[formula] where Top is the maximal % of control absorbance, Bottom is the minimal % of control absorbance at the highest agent concentration, Y is the % of control absorbance, X is the agent concentration, IC50 is the concentration of agent that inhibits cell growth by 50% compared to the control cells, and n is the slope of the curve.
Inhibitory response of test compounds against HCC1954 cells was determined using a method analogous to that used for BT-474 cells.
The term IC50 denotes the concentration that gives 50% inhibition. As to `C/C=C(\C)[C@H]1OC(=O)[C@@H](C)NC(=O)[C@H]([C@H](C)CC)NC(=O)CN(C)C(=O)[C@@H](Cc2ccccc2)N(C)C(=O)[C@H](C)NC(=O)[C@@H](CC(C)C)OC(=O)/C(C)=C/C[C@H](OC(=O)NCCc2ccc(O)cc2)[C@@H]1C` [Compound 10, (2R,5S,8R,14S,17R,20S,21S,22S,E)-8-benzyl-20-((E)-but-2-en-2-yl)-14-((R)-sec-butyl)-2-isobutyl-5,7,10,17,21,25-hexamethyl-3,6,9,12,15,18,26-heptaoxo-1,19-dioxa-4,7,10,13,16-pentaazacyclohexacos-24-en-22-yl (4-hydroxyphenethyl)carbamate], the midpoint of inhibition, the IC50, lay at 1.36 nM. Then `C/C=C(\C)[C@H]1OC(=O)[C@@H](C)NC(=O)[C@H]([C@H](C)CC)NC(=O)CN(C)C(=O)[C@@H](Cc2ccccc2)N(C)C(=O)[C@H](C)NC(=O)[C@@H](CC(C)C)OC(=O)/C(C)=C/C[C@H](OC(=O)NCc2ccc(CO)cc2)[C@@H]1C` [Compound 12, (2R,5S,8R,14S,17R,20S,21S,22S,E)-8-benzyl-20-((E)-but-2-en-2-yl)-14-((R)-sec-butyl)-2-isobutyl-5,7,10,17,21,25-hexamethyl-3,6,9,12,15,18,26-heptaoxo-1,19-dioxa-4,7,10,13,16-pentaazacyclohexacos-24-en-22-yl (4-(hydroxymethyl)benzyl)carbamate], with 3.29 nM; and `C/C=C(\C)[C@H]1OC(=O)[C@@H](C)NC(=O)[C@H]([C@H](C)CC)NC(=O)CN(C)C(=O)[C@@H](Cc2ccccc2)N(C)C(=O)[C@H](C)NC(=O)[C@@H](CC(C)C)OC(=O)/C(C)=C/C[C@H](OC(=O)NCCCCCCCCCCCCO)[C@@H]1C` [Compound 13, (2R,5S,8R,14S,17R,20S,21S,22S,E)-8-benzyl-20-((E)-but-2-en-2-yl)-14-((R)-sec-butyl)-2-isobutyl-5,7,10,17,21,25-hexamethyl-3,6,9,12,15,18,26-heptaoxo-1,19-dioxa-4,7,10,13,16-pentaazacyclohexacos-24-en-22-yl (12-hydroxydodecyl)carbamate], with 18.1 nM. Then `C/C=C(\C)[C@H]1OC(=O)[C@@H](C)NC(=O)[C@H]([C@H](C)CC)NC(=O)CN(C)C(=O)[C@@H](Cc2ccc(Cl)cc2)N(C)C(=O)[C@H](C)NC(=O)[C@@H](CC(C)C)OC(=O)/C(C)=C/C[C@H](OC(=O)NCCCCCO)[C@@H]1C` [Compound 16, (2R,5S,8R,14S,17R,20S,21S,22S,E)-20-((E)-but-2-en-2-yl)-14-((R)-sec-butyl)-8-(4-chlorobenzyl)-2-isobutyl-5,7,10,17,21,25-hexamethyl-3,6,9,12,15,18,26-heptaoxo-1,19-dioxa-4,7,10,13,16-pentaazacyclohexacos-24-en-22-yl (5-hydroxypentyl)carbamate], with 0.1 nM; and `C/C=C(\C)[C@H]1OC(=O)[C@@H](C)NC(=O)[C@H]([C@H](C)CC)NC(=O)CN(C)C(=O)[C@@H](Cc2ccc(Cl)cc2)N(C)C(=O)[C@H](C)NC(=O)[C@@H](CC(C)C)OC(=O)/C(C)=C/C[C@H](OC(=O)NCCOCCO)[C@@H]1C` [Compound 17, (2R,5S,8R,14S,17R,20S,21S,22S,E)-20-((E)-but-2-en-2-yl)-14-((R)-sec-butyl)-8-(4-chlorobenzyl)-2-isobutyl-5,7,10,17,21,25-hexamethyl-3,6,9,12,15,18,26-heptaoxo-1,19-dioxa-4,7,10,13,16-pentaazacyclohexacos-24-en-22-yl (2-(2-hydroxyethoxy)ethyl)carbamate], with 4.15 nM. As for `C/C=C(\C)[C@H]1OC(=O)[C@@H](C)NC(=O)[C@H]([C@H](C)CC)NC(=O)CN(C)C(=O)[C@@H](Cc2ccc(Cl)cc2)N(C)C(=O)[C@H](C)NC(=O)[C@@H](CC(C)C)OC(=O)/C(C)=C/C[C@H](OC(=O)NCCc2ccc(O)cc2)[C@@H]1C` [Compound 18, (2R,5S,8R,14S,17R,20S,21S,22S,E)-20-((E)-but-2-en-2-yl)-14-((R)-sec-butyl)-8-(4-chlorobenzyl)-2-isobutyl-5,7,10,17,21,25-hexamethyl-3,6,9,12,15,18,26-heptaoxo-1,19-dioxa-4,7,10,13,16-pentaazacyclohexacos-24-en-22-yl (4-hydroxyphenethyl)carbamate], it took 2.37 nM to reach half-maximal inhibition (IC50). Consider `C/C=C(\C)[C@H]1OC(=O)[C@@H](C)NC(=O)[C@H](C(C)CC)NC(=O)CN(C)C(=O)[C@@H](Cc2ccc(Cl)cc2)N(C)C(=O)[C@H](C)NC(=O)[C@@H](CC(C)C)OC(=O)/C(C)=C/C[C@H](OC(=O)N(C)CCCCCCNC)[C@@H]1C` (stereo partly drawn) [Compound 19, (2R,5S,8R,14S,17R,20S,21S,22S,E)-20-((E)-but-2-en-2-yl)-14-((R)-sec-butyl)-8-(4-chlorobenzyl)-2-isobutyl-5,7,10,17,21,25-hexamethyl-3,6,9,12,15,18,26-heptaoxo-1,19-dioxa-4,7,10,13,16-pentaazacyclohexacos-24-en-22-yl methyl (6-(methylamino)hexyl)carbamate], for which it took 4.16 nM to reach half-maximal inhibition (IC50). Then `C/C=C(\C)[C@H]1OC(=O)[C@@H](C)NC(=O)[C@H]([C@H](C)CC)NC(=O)CN(C)C(=O)[C@@H](Cc2ccc(Cl)cc2)N(C)C(=O)[C@H](C)NC(=O)[C@@H](CC(C)C)OC(=O)/C(C)=C/C[C@H](OC(=O)N(C)CCCCCCCCCCCCNC)[C@@H]1C` [Compound 20, (2R,5S,8R,14S,17R,20S,21S,22S,E)-20-((E)-but-2-en-2-yl)-14-((R)-sec-butyl)-8-(4-chlorobenzyl)-2-isobutyl-5,7,10,17,21,25-hexamethyl-3,6,9,12,15,18,26-heptaoxo-1,19-dioxa-4,7,10,13,16-pentaazacyclohexacos-24-en-22-yl methyl(12-(methylamino)dodecyl)carbamate], with 15.4 nM. Then `C/C=C(\C)[C@H]1OC(=O)C(C)(C)NC(=O)[C@H]([C@H](C)CC)NC(=O)CN(C)C(=O)[C@@H](Cc2ccc(Cl)cc2)N(C)C(=O)[C@H](C)NC(=O)[C@@H](CC(C)C)OC(=O)/C(C)=C/C[C@H](O)[C@@H]1C` [Compound 21, (6S,12R,15S,18R,24S,25S,26S,E)-26-((E)-but-2-en-2-yl)-6-((R)-sec-butyl)-12-(4-chlorobenzyl)-24-hydroxy-18-isobutyl-3,3,10,13,15,21,25-heptamethyl-1,19-dioxa-4,7,10,13,16-pentaazacyclohexacos-21-ene-2,5,8,11,14,17,20-heptaone], with 0.56 nM; and `C/C=C(\C)[C@H]1OC(=O)C(C)(C)NC(=O)[C@H](C(C)CC)NC(=O)CN(C)C(=O)[C@@H](Cc2ccc(Cl)cc2)N(C)C(=O)[C@H](C)NC(=O)[C@@H](CC(C)C)OC(=O)/C(C)=C/C[C@H](OC(=O)NCCCCCO)[C@@H]1C` (stereo partly drawn) [Compound 22, (2R,5S,8R,14S,20S,21S,22S,E)-20-((E)-but-2-en-2-yl)-14-((R)-sec-butyl)-8-(4-chlorobenzyl)-2-isobutyl-5,7,10,17,17,21,25-heptamethyl-3,6,9,12,15,18,26-heptaoxo-1,19-dioxa-4,7,10,13,16-pentaazacyclohexacos-24-en-22-yl(5-hydroxypentyl)carbamate], with 7.26 nM. Compound `C/C=C(\C)[C@H]1OC(=O)C(C)(C)NC(=O)[C@H]([C@H](C)CC)NC(=O)CN(C)C(=O)[C@@H](Cc2ccc(Cl)cc2)N(C)C(=O)[C@H](C)NC(=O)[C@@H](CC(C)C)OC(=O)/C(C)=C/C[C@H](OC(=O)N(C)CCCCCCNC)[C@@H]1C` [Compound 23, (2R,5S,8R,14S,20S,21S,22S,E)-20-((E)-but-2-en-2-yl)-14-((R)-sec-butyl)-8-(4-chlorobenzyl)-2-isobutyl-5,7,10,17,17,21,25-heptamethyl-3,6,9,12,15,18,26-heptaoxo-1,19-dioxa-4,7,10,13,16-pentaazacyclohexacos-24-en-22-yl methyl(6-(methylamino)hexyl)carbamate] returned an IC50 of 0.47 nM. The value for `C/C=C(\C)[C@H]1OC(=O)C(C)(C)NC(=O)[C@H]([C@H](C)CC)NC(=O)CN(C)C(=O)[C@@H](Cc2ccc(Cl)cc2)N(C)C(=O)[C@H](C)NC(=O)[C@@H](CC(C)C)OC(=O)/C(C)=C/C[C@H](OC(=O)N(C)CCCCCCN(C)C(C)=O)[C@@H]1C` [Compound 24, (2R,5S,8R,14S,20S,21S,22S,E)-20-((E)-but-2-en-2-yl)-14-((R)-sec-butyl)-8-(4-chlorobenzyl)-2-isobutyl-5,7,10,17,17,21,25-heptamethyl-3,6,9,12,15,18,26-heptaoxo-1,19-dioxa-4,7,10,13,16-pentaazacyclohexacos-24-en-22-yl methyl(6-(N-methylacetamido)hexyl)carbamate] was 2.07 nM. Then `C/C=C(\C)[C@H]1OC(=O)C(C)(C)NC(=O)[C@H]([C@H](C)CC)NC(=O)CN(C)C(=O)[C@@H](Cc2ccc(Cl)cc2)N(C)C(=O)[C@H](C)NC(=O)[C@@H](CC(C)C)OC(=O)/C(C)=C/C[C@H](OC(=O)N2CCN(CCO)CC2)[C@@H]1C` [Compound 26, (2R,5S,8R,14S,20S,21S,22S,E)-20-((E)-but-2-en-2-yl)-14-((R)-sec-butyl)-8-(4-chlorobenzyl)-2-isobutyl-5,7,10,17,17,21,25-heptamethyl-3,6,9,12,15,18,26-heptaoxo-1,19-dioxa-4,7,10,13,16-pentaazacyclohexacos-24-en-22-yl 4-(2-hydroxyethyl)piperazine-1-carboxylate], with 1.36 nM.
